Measured values as given in patent US20250134862A1, “PROCESS FOR TREATING LIVESTOCK EXPOSED TO TOXIC FORAGE USING MELATONIN COMPOSITIONS” (BOARD OF TRUSTEES OF THE UNIVERSITY OF ARKANSAS, priority 2022, published 2025).

Key:
[1] = test system: pregnant heifers consuming endophyte-infected (E+) tall fescue seed and their offspring; assay: Example 1: gestation length and body weights of calves born to dams fed tall fescue seed with or without melatonin; type: in vivo, cattle
Text: Fifty-seven (n=57) pregnant heifers artificially inseminated with sex-sorted semen (X chromosome-bearing sperm) from a single Angus sire were maintained at the Savoy Unit at the University of Arkansas on Bermuda grass pastures and supplemented as needed during the first 4-5 months of gestation. After that time, pregnant heifers were housed in a barn at the Savoy Unit (FIG. 1) having a controlled feeding system (SmartFeed Pro, C-Lock, Inc.). The controlled feeding system used radio frequency identification to control feed mixtures and intake for heifers.
(§1) After the training period, the heifers started a 70-day feeding trial (FIG. 2) to evaluate the influence of toxic fescue and melatonin on the developing fetus. To mimic the natural peak of ergot alkaloids in Kentucky 31 fescue, toxic fescue seed was fed with or without melatonin during the 70-day period between May and July. The feed trial period diet consisted of an ad libitum Bermuda grass hay and one of four (4) feed rations. The trial utilized a 2×2 factorial treatment arrangement (E− without melatonin, E−/NM; E− with melatonin, E−/M; E+ without melatonin, E+/NM; or E+ with melatonin, E+/M; melatonin dose: 100 μg/kg of BW) for a 70-d period between May and July starting at 160±13 days of gestation to mimic ergot alkaloid concentrations (ergot alkaloid dose: 13 μg/kg of BW) in a grazing scenario (FIG. 2). Each of the four feed ration treatments was represented in each of the two pens/groups of cattle (FIG. 1). All diets contained corn gluten and molasses and were fed using SmartFeed Pro (C-Lock Inc.) controlled feeding units between 0900 and 1400 h daily. Cattle were removed from dietary treatments 39±19 days before calving. Two replicates were housed separately in the open-air barn (FIG. 1), each with a 1.2-ha paddock. Before and following the 70-d treatment period, all cattle were maintained as a single group free from toxic fescue.
(§2) Powdered melatonin (Cayman Chemical Company) was mixed into 100% ethanol and mixed with feed (fescue seed, corn gluten, and molasses) in a concrete mixer until the feed was dry (ethanol evaporates, and melatonin remains). Melatonin was dosed at about 100 μg/kg of body weight or about 50 mg/head/day for all groups. Ad libitum Bermuda grass hay was offered in an adjacent pasture area to encourage animals to leave the barn after consuming the feed ration during both the training and the feed trial period. After completion of the feed trial, heifers were maintained on fescue-free pastures at the Physiology Farm and supplemented as needed through calving and until their calves were weaned.
Calf body weight was recorded at birth, and calves were tagged for identification purposes. Blood samples were collected from calves at 12±2 days of age via jugular venipuncture (four 10 mL purple top tubes and one 4 mL purple top tube). At weaning, body weight was recorded, and blood samples were collected via jugular venipuncture (four 10 mL purple top tubes and one 4 mL purple top tube). Vaccinations were administered to calves according to normal procedures at the Savoy Unit. Heifers and calves were maintained according to standard procedures at the Savoy Unit and the Physiology Farm.
Calves were weaned at 226±19 d of age. Gestation length, calf birth weight, 205-day adjusted weaning weight (205-d WW), carcass ultrasonography measures (ribeye area, REA: REA/CWT), percent intramuscular fat (IMF), rib fat thickness (UFAT), rump fat thickness (URUMP), post-weaning weights (recorded every 28 days between weaning and 84 days post-weaning), and post-weaning average daily gain (ADG) (between weaning and 84 days post-weaning) were evaluated in offspring (n=44) (FIGS. 6-13). Post-weaning calf weights were analyzed using the MIXED procedure of SAS specific for repeated measures with treatment and time as fixed effects and replicate as random. […]

[2] = test system: offspring of dams that consumed endophyte-infected (E+) tall fescue seed; assay: Example 1: body composition (carcass) ultrasonography of calves at weaning; type: in vivo, cattle
Text: as §1, §2
Calves were weaned at 226±19 d of age. Gestation length, calf birth weight, 205-day adjusted weaning weight (205-d WW), carcass ultrasonography measures (ribeye area, REA: REA/CWT), percent intramuscular fat (IMF), rib fat thickness (UFAT), rump fat thickness (URUMP), post-weaning weights (recorded every 28 days between weaning and 84 days post-weaning), and post-weaning average daily gain (ADG) (between weaning and 84 days post-weaning) were evaluated in offspring (n=44) (FIGS. 6-13). Post-weaning calf weights were analyzed using the MIXED procedure of SAS specific for repeated measures with treatment and time as fixed effects and replicate as random. All other variables were analyzed using the MIXED procedure of SAS with treatment as a fixed effect and replicate as random with gestation length as a covariate for birth weight. Table 1 summarizes the gestation length and body weights of calves born to primiparous dams that consumed E- or E+ fescue seed with (M) or without melatonin (NM) supplementation during mid-late gestation. Data in Tables 1 and 2 are presented as LS MEANS±SEM.

[3] = test system: pregnant beef cattle grazing toxic, endophyte-infected (E+) tall fescue; assay: Example 2: plasma prolactin by radioimmunoassay on d 70 of the treatment period; type: in vivo; conditions: cows on E+ fescue with melatonin 100 μg/kg BW, d 70 of treatment
Text: (§3) Multiparous crossbred cows were artificially inseminated with sex-sorted semen (Y chromosome-bearing sperm) from a single Angus sire and maintained on pastures free from E+ fescue prior to the start of the treatment period. Pregnant cows […] were assigned to one of three treatment groups based on body weight, with two replications per treatment: non-toxic, novel endophyte-infected (NE+) fescue without melatonin supplementation (NE+/NM; […]), E+ fescue with melatonin supplementation (E+/M; n=16), and E+ fescue without melatonin supplementation (E+/NM; n=18). Treatments were administered over a 70-d period between May and July (d 147±1 to 217±1 of gestation). A commercially available feed was mixed with or without melatonin [100 μg/kg body weight (BW)] and hand-fed daily.
Cows were weighed every fourteen (14) days relative to the start of the 70-d treatment period (FIG. 16-17): i.e., at d 0, 14, 28, 42, 56, and 70. […]
After the treatment period, cattle were maintained together as a single group on pastures that were free from E+ fescue. Body weights were analyzed using the MIXED procedure of SAS specific for repeated measures with treatment, time, and the interaction as fixed effects and replicate as random. Arterial hemodynamics and prolactin measures were analyzed using the MIXED procedure of SAS with treatment as a fixed effect and replicate as a random effect. […]

[4] = test system: pregnant beef cattle grazing toxic, endophyte-infected (E+) tall fescue; assay: Example 2: color Doppler ultrasound of uterine and coccygeal artery hemodynamics; type: in vivo
Text: as §3
Cows were weighed every fourteen (14) days relative to the start of the 70-d treatment period (FIG. 16-17): i.e., at d 0, 14, 28, 42, 56, and 70. Measurements of plasma prolactin were obtained on d 70 of the treatment period by radioimmunoassay (FIG. 18). Color Doppler ultrasound of the uterine and coccygeal artery was conducted at d 68±1 of the treatment period. Cardiac cycle waveforms from three independent ultrasound scans were used to determine the following uterine artery measures (FIGS. 19-25) and coccygeal artery measures (FIGS. 26-30): diameter (cm), pulsatility index (PI), resistance index (RI), blood flow (BF; mL/min; equal to MnV*vessel area*60 s), and blood flow as a proportion of BW (BF/BW).
After the treatment period, cattle were maintained together as a single group on pastures that were free from E+ fescue. Body weights were analyzed using the MIXED procedure of SAS specific for repeated measures with treatment, time, and the interaction as fixed effects and replicate as random. Arterial hemodynamics and prolactin measures were analyzed using the MIXED procedure of SAS with treatment as a fixed effect and replicate as a random effect. Ultrasonography day and order were tested as covariates and removed from the model […].

[5] = test system: steer calves of pregnant beef cattle grazing toxic, endophyte-infected tall fescue (E+); assay: Example 3: body weight of steer calves born to dams grazing E+ fescue with melatonin supplementation; type: in vivo; conditions: for Calf weight: raw group average
Text: (§4) The same artificially inseminated cows were used in Example 3 that were used Example 2. As outlined above in Example 2, forty-nine (n=49) multiparous crossbred beef cows were artificially inseminated with sex-sorted semen (Y chromosome-bearing sperm) from a single Angus sire and maintained on pastures free from E+ fescue prior to the start of the treatment period. Pregnant cows were stratified into three treatment groups based on body weight, with two replications per treatment: non-toxic, novel endophyte-infected (NE+) tall fescue without melatonin supplementation (NE+/NM; n=15), E+ fescue with melatonin supplementation (E+/M; n=16), and E+ fescue without melatonin supplementation (E+/NM; n=18). The treatment period was over 70 d between May and July (d 147±1 to 217-1 of gestation). A commercially available feed was mixed with melatonin (100 μg/kg BW) or without melatonin and hand-fed to each cow daily. At the conclusion of the treatment period (56±18 d before parturition), cattle were moved to a single group and maintained on pastures free from E+ fescue, where they remained through weaning.
After birth, calves were castrated within 48-72 hours. Dams and steer calves were weighed every 28 days relative to calving (FIG. 31): i.e., at d 0, 28, 56, 84, 112, 140, and 168 (d 0=calving, <24 h). Table 3 depicts calf weight at preweaning, postweaning, and feedlot for NE+/NM, E/+M, and E/+NM (respectively, green, yellow, and red in FIG. 34B). Four-hour milk yields on d 28±3 and d 56±3 were used to estimate daily milk volume and weight. Protein, lactose, and triglycerides were evaluated in milk samples collected on d 28 and d 56.
(§5) Dam body weight (FIG. 32) and calf body weight (FIG. 34) were analyzed, using the MIXED procedure of SAS specific for repeated measures with treatment and time as fixed effects and replicate as a random effect. Dam prolactin, calf birth weight (FIG. 33), milk volume (FIGS. 35 and 37), and milk weight (FIGS. 36 and 38) were analyzed using the MIXED procedure of SAS with treatment as a fixed effect and replicate as a random effect.

[6] = test system: beef cows that grazed toxic, endophyte-infected tall fescue (E+) during gestation; assay: Example 3: estimated daily milk volume and weight from four-hour milk yields; type: in vivo, cattle; conditions: d 56, P<0.03
Text: as §4, with “A commercially available feed was mixed with melatonin (100 μg/kg BW) or without melatonin and hand-fed to each cow daily. At the conclusion of the treatment period (56±18 d before parturition), cattle were moved to a single group and maintained on pastures free from E+ fescue, where they remained through weaning.” left out
After birth, calves were castrated within 48-72 hours. […] Protein, lactose, and triglycerides were evaluated in milk samples collected on d 28 and d 56.
as §5

[7] = calves, melatonin main-effect mean, dams 100 μg/kg BW for 70 d, LS mean
[8] = calves at weaning, melatonin main-effect mean, LS mean
[9] = cows on E+ fescue with melatonin, d 68±1 of treatment

COc1ccc2[nH]cc(CCNC(C)=O)c2c1 [melatonin]
calf weight at weaning recovered by feeding melatonin ([1]; Example 1, first-calf heifers, statistically adjusted means): approximately 53 lbs.
share of the loss in calf weight at weaning recovered by feeding melatonin ([1]; Example 1, loss approximately 68 lbs., statistically adjusted means): over 75%
birth weight of offspring, dams receiving melatonin relative to those without ([1]; P=0.02 as printed in text): increased
205-d WW (205-day adjusted weaning weight) [1, 7]: 176.95 kg
Birth Weight [1, 7]: 25.90 kg
205-d weaning weight, toxic fescue seed with melatonin compared to toxic fescue seed without melatonin ([1]; fescue × melatonin interaction): increased
post-weaning calf weight, toxic fescue seed with melatonin compared to toxic fescue seed without melatonin ([1]; fescue × melatonin interaction): increased
Gestation Length ([1]; melatonin main-effect mean (E- and E+ diets pooled), 100 μg/kg BW in feed for 70 d mid-late gestation, LS mean): 272.00 days
IMF (percent intramuscular fat) [2, 8]: 2.60%
REA (ribeye area) [2, 8]: 5.87 in.^2
UFAT (rib fat thickness) [2, 8]: 0.08 in.
URUMP (rump fat thickness) [2, 8]: 0.08 in.
ribeye area, toxic fescue seed with melatonin compared to toxic fescue seed without melatonin ([2]; fescue × melatonin interaction): increased
Prolactin (plasma) [3]: 86.9 ± 14.9 ng/mL
Coccygeal artery PI (pulsatility index) [4, 9]: 0.86±0.1
Coccygeal artery RI (resistance index) [4, 9]: 0.53±0.02
effects on uterine and coccygeal artery hemodynamics ([4]; pregnant multiparous crossbred beef cows grazing endophyte-infected tall fescue): limited effects
Calf weight ([5]; Birth): 74.43 lbs.
Calf weight ([5]; D 28): 148.07 lbs.
Calf weight ([5]; D 56): 212.07 lbs.
Calf weight ([5]; D 84): 278.46 lbs.
Calf weight ([5]; D 112): 347.15 lbs.
Calf weight ([5]; D 140): 409.15 lbs.
Calf weight ([5]; D 168): 476.77 lbs.
Calf weight ([5]; D 196): 535.31 lbs.
Calf weight ([5]; D +28 Post-Weaning): 641.23 lbs.
Calf weight ([5]; D +56 Post-Weaning): 703.69 lbs.
Calf weight ([5]; D +84 Post-Weaning): 766.62 lbs.
Calf weight ([5]; D +112 Post-Weaning): 852.92 lbs.
Calf weight ([5]; Feedlot - October 29): 1003.33 lbs.
Calf weight ([5]; Weaning): 622.31 lbs.
share of the loss in calf weight recovered by feeding melatonin ([5]; second study, 28 days prior to weaning, loss 28 lbs., statistically adjusted means): over 65%
calf weight recovered by feeding melatonin ([5]; second study, 28 days prior to weaning, multiparous cows, statistically adjusted means): approximately 19 lbs.
estimated daily milk volume relative to NE+/NM dams [6]: decreased
estimated daily milk weight relative to NE+/NM dams [6]: decreased
